In US20150119352A1, “DINUCELOSIDE POLYPHOSPHATES FOR THE TREATMENT OF PAIN” (GlobalAcorn Ltd., priority 2012, published 2015):
“Also recorded” adds a separate entry of the source. Read-outs that look alike come from different tables or passages of the source.

Columns and labels:
[1] = biological target: T1, rat homomeric P2X3 receptors (Rattus norvegicus, UniProt P49654); experiment: Whole-cell patch clamp on HEK cells expressing rat homomeric P2X3 receptors; assay type: cell-based; conditions: for depression of P2X3 current: 1 μM; for nH of the activation dose-response curve: activation of P2X3 receptors
T1 construct: transfected with rat full-length P2X3 cDNA subcloned into pIRES2-EGFP; expressed in transfected cells; host or cells: HEK293T
T1 sequence (P49654 1-397): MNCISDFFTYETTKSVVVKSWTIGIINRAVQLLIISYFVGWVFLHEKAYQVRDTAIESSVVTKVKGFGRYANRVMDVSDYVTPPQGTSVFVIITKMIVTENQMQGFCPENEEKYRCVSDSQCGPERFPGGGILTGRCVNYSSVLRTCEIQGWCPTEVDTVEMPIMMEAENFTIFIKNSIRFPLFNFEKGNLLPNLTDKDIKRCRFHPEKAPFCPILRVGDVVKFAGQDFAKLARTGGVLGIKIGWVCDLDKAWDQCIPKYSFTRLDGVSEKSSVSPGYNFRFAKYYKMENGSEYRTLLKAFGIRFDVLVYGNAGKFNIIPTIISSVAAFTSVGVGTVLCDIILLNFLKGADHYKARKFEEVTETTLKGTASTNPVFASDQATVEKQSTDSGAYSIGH
Procedure: Rat trigeminal (TG), nodose (NG) or dorsal root ganglion (DRG) neurons in culture were prepared as described previously (Sokolova et al., 2001; Simonetti et al., 2006). Neurons were plated on poly-L-lysine (0.2 mg/mL)-coated Petri dishes and cultured for 1 to 2 days under an atmosphere containing 5% CO2. Cells were used within 2 days of plating when they lacked processes. HEK293T cells were prepared as reported previously (Fabbretti et al., 2004; Sokolova et al., 2004) and transfected with rat full-length P2X3 cDNA subcloned into pIRES2-EGFP (Clontech, Mountain View, Calif., USA).
Trigeminal, nodose, DRG neurons or HEK cells were recorded in the whole-cell configuration while being continuously superfused (at 2 mL/min) with control solution containing (in mM): 152 NaCl, 5 KCl, 1 MgCl2, 2 CaCl2, 10 glucose, and 10 HEPES; pH was adjusted to 7.4 with NaOH and osmolarity was adjusted to 320 mOsM with glucose. […] Responses to selective P2X3 receptor agonist α,β-methylene-ATP (α,β-meATP; resistant to ectoATPase hydrolysis, Sigma-Aldrich) were measured using an EPC-9 amplifier and HEKA Patch Master software (HEKA Electronik, Germany). Cells were voltage-clamped at −70 mV. In most cells, series resistance was compensated by 80%. To determine half effective concentration of agonist (EC50), dose-response curves for α,β-meATP were constructed by applying different agonist doses to the same cells and fitting them with a logistic equation (Origin 8.0, Microcal, Northampton, Mass.).
Agonists and antagonists were applied, usually for 2 sec, via a rapid superfusion system (Rapid Solution Changer RSC-200; BioLogic Science Instruments, Grenoble, France) placed 100 to 150 μm near the cell. The time for the solution exchange across the cell was approximately 30 ms, as judged with liquid junction potential measurements. All chemicals, including enzymes for cell culture, were from Sigma (St. Louis, Mo.). Culture media were obtained from Invitrogen (Milan, Italy).
The peak amplitudes of the responses were measured using HEKA Patch Master software. For each agonist, dose-response plots were constructed by normalizing data with respect to the maximum response. All data are presented as mean±S.E.M. (n=the number of cells) with statistical significance assessed by paired t-test (for parametric data) or Mann-Whitney rank sum test (for non-parametric data). Best fits of data with a sigmoid function were compared with respective control fits using Origin 8.0 software. A value of P<0.05 was accepted as indicative of statistically significant difference.
The inhibitory (suppressive) potencies of AppNHppA and AppCH2ppA via high affinity desensitization (HAD) were evaluated. The inventors applied both synthetic analogues in different experiments during rhythmic 2 s long (2 […]) activations of P2X3 receptors using 10 μM α,β-meATP (for protocol see FIG. 2 top).

rats = experiment: Hargreaves plantar test under complete Freund adjuvant-induced thermal hyperalgesia; assay type: in vivo, rat; conditions: for antinociceptive effect on CFA-induced thermal hyperalgesia (paw withdrawal latency): injection (100 μL) into the inflamed hind paw
Procedure: FIG. 8. […] A. Time-course of the effects of 1 and 20 μM (100 μL) of AppCH2ppA and AppNHppA on the paw withdrawal latency (PWL). B. Bar-graphs of the effects of AppCH2ppA and AppNHppA on the integral PWL.
FIG. 10. […] A. Time-course of the effects of i.t. AppCH2ppA on complete Freund adjuvant-induced thermal hyperalgesia (Hargreaves plantar test). B. Bar-graphs of the effects of i.t. AppCH2ppA on rat PWL.

Row | depression of P2X3 current ([1]; α,β-meATP pulses every 30 s (high rate)) | depression of P2X3 current ([1]; α,β-meATP pulses every 2 min (low rate)) | EC50 ([1]; agonist applied for 2 s, read-out: EC50 for activation of P2X3 mediated currents) | IC50 ([1]; test pulses of 10 μM α,β-meATP every 2 min, measured 6 min after drug application, read-out: IC50 for inhibition of P2X3 mediated currents) | SMILES | nH of the activation dose-response curve [1] | antinociceptive effect on CFA-induced thermal hyperalgesia (paw withdrawal latency) (rats) | antinociceptive effect (rats; intra-thecal administration, 20 μM) | antinociceptive effect (rats; intraplantar administration) | antinociceptive effect of intrathecal compared with intraplantar injection (rats; intrathecal 20 μM, 100 μL) | effect of local peripheral intraplantar injection relative to intrathecal injection (rats; rat, in vivo) | EC50 [1] | IC50 [1] | amplitude of the following α,β-meATP response ([1]; 10 nM applied for 6 min) | inhibition (suppression) of test responses ([1]; 3 μM) | induction of membrane currents ([1]; 0.1 or 1 μM) | induction of membrane currents ([1]; 10 or 100 μM) | remaining activity at 0.1 µM ([1]; HEK293, read-out: test responses reduced to (% of control)) | current response as % of the response induced by 10 μM of α,β-meATP ([1]; saturating 1 mM concentration, same cell)
1 | 81±3% | 61.3±5% | 9.3 ± 1.7 µM | 0.55 ± 0.2 µM | Nc1ncnc2c1ncn2[C@@H]1O[C@H](COP(=O)(O)OP(=O)(O)CP(=O)(O)OP(=O)(O)OC[C@H]2O[C@@H](n3cnc4c(N)ncnc43)C(O)C2O)C(O)C1O (stereo in doubt) [AppCH2ppA] | 2.27±0.56 | antinociceptive effect was observed | 27% | 53% | weaker delayed antinociceptive effect; also recorded: less pronounced analgesia | two-fold higher effect |  |  |  |  |  |  |  | 
2 |  |  |  |  | Nc1ncnc2c1ncn2[C@@H]1O[C@H](COP(=O)(O)OP(=O)(O)NP(=O)(O)OP(=O)(O)OC[C@H]2O[C@@H](n3cnc4c(N)ncnc43)C(O)C2O)C(O)C1O (stereo in doubt) [AppNHppA] | 1.58±0.05 | antinociceptive effect was observed |  |  |  |  | 41.6 ± 1.3 µM | 0.2 ± 0.04 µM | almost unchanged | strong (almost full) inhibition | not to induce membrane currents | small and slowly desensitizing currents | 38.2 ± 8.5% | 41.2±13%
